Non-standard residues stand in square brackets, D forms with d. No end group written: not given here. NMeF = CN[C@@H](Cc1ccccc1)C(=O)O; Orn = NCCC[C@H](N)C(=O)O
How the values were obtained:
[1] = size exclusion chromatography in sodium acetate buffer; assay type: physicochemical; conditions: for oligomer state consistent with SEC elution volume: acetate buffer; for oligomer size by SEC: sodium acetate buffer pH 4.5
Protocol: The elution profiles in acetate buffer of trimers were compared to peptides 1 and 2. Size standards vitamin B12 (1.3 kDa), aprotinin (6.5 kDa), and […] (12.4 kDa) eluted at 18.6 mL, 15.4 mL, and 13.4 mL, respectively (FIG. 31A). Trimer 3 and […] eluted at 14.3 mL and at 14.5 mL, respectively. These elution volumes are consistent with the molecular weight of a hexamer (10.6 kDa). The peaks for trimers 3 and 4 tail slightly and may reflect a trimer-hexamer equilibrium in which the hexamer predominates.
Peptides 1 and 2 elute at 16.8 mL and 17.3 mL, respectively.
The oligomerization of peptides 1 and 2 and trimers 3 and 4 was studied by size-exclusion chromatography (SEC) at 4 CC in 50 mM sodium acetate/50 mM acetic acid buffer (sodium acetate buffer) at pH 4.5 as follows: Each peptide or trimer was dissolved in deionized water to a concentration of 10 mg/mL. The peptide or trimer solutions were then diluted to 1 mg/mL by adding 80 μL of the 10 mg/mL solutions to 720 μL of sodium acetate buffer. The peptide or trimer solutions were loaded onto a GE Superdex 75 10/300 GL column at 0.5 mL/min over 1 min. After loading, the samples were run with sodium acetate buffer at 1 mL/min, Chromatograms were recorded at 214 nm and normalized to the highest absorbance value. Standards (cytochrome C, aprotinin, and vitamin B12) were run in the same fashion.

A11 antibody = assay: dot blot with A11 antibody; assay type: binding
Source text: The LDH release and caspase-3 activation studies indicate that trimers 3 and 4 behave similarly to oligomers of full-length Aβ, providing evidence for the biological significance of the triangular assembly. To further evaluate how the biological properties of trimers 3 and 4 compare to those of full-length Aβ, the reactivity of trimers 3 and 4 with the conformation specific antibody A11 was examined. […] The structures of the A oligomers recognized by the A11 antibody are not known. We investigated whether the A11 antibody recognizes trimers 3 and 4 by dot blot analysis.
A 10 mg/mL stock solution of peptides 1 or 2, or trimers 3 or 4 was prepared gravimetrically by dissolving 1 mg of each compound in 100 μL of deionized water that was either filtered through a 0.2 μm syringe filter. An aliquot of each stock solution was diluted with deionized water to make 3 mg/mL solutions. The 3 mg/mL solutions were then serially diluted with deionized water to create 1.5 mg/mL, 0.75 mg/mL, and 0.37 mg/mL solutions. A 5 μL aliquot of each solution from the serial dilution was combined with 5 μL of a 2× solution of phosphate buffered saline (PBS) at pH 7.4 to generate 1.5 mg/mL, 0.75 mg/mL, and 0.37 mg/mL, and 0.18 mg/mL buffered solutions of peptides 1 or 2 or trimers 3 or 4. A 1-μL aliquot of each buffered solution was spotted onto a nitrocellulose membrane and allowed to aft dry (˜5 min). Non-reactive sites were blocked with 10% (w/v) non-fat powdered milk in low-Tween Tris-buffered saline (TBS-IT: 20 mM Tris, 137 mM NaCl; 0.01% Tween 20, pH 7.6) for 1 h at room temperature with rocking. The membrane was then incubated while rocking overnight at 4° C. in primary A11 antibody (200 μg/mL) in 5% non-fat powdered milk in TBS-IT. The next day, the membrane was washed with TBS-IT for 5 min (3×). The membrane was then incubated while rocking with horseradish peroxidase conjugated goat anti-rabbit antibody (100 μg/mL) (Jackson ImmunoResearch catalog #111-035-003) in 5% non-fat powdered milk in TBS-IT for 1 h at room temperature. The membrane was then washed with TBS-IT for 5 min (3×). A 10 mL portion of chemiluminescence substrate (Thermo Scientific SuperSignal West Femto Maximum Sensitivity Substrate, product #34095) was prepared according to manufacturer's protocol and poured onto the membrane. The membrane was allowed to incubate in the chemiluminescence substrate for ˜10 min before imaging. The blot was imaged using a standard digital SLR camera.

caspase-3 = caspase-3 activation assay; assay type: cell-based, human; conditions: for caspase-3 activation / induction of caspase-3 mediated apoptosis: SH-SY5Y cells; for caspase-3 activation: 72 h; for induction of caspase-3 mediated apoptosis: trimers at 6 μM, within 72 h; for caspase-3 activity level compared to staurosporine: after treatment of SH-SY5Y cells
Protocol: One of the ways in which A oligomers elicit toxicity is through induction of caspase-3 mediated apoptosis. Trimers 3 and 4 were evaluated for their ability to induce caspase-3 mediated apoptosis using a rhodamine-based caspase-3 activity assay.
The toxicities of peptides 1 and […], and trimers 3 and 4 toward SH-SY5Y cells were assessed by LDH release and caspase-3 activation assays. Cells were incubated in the presence or absence of equivalent concentrations of peptides 1 or 3, or trimers 3 and 4 for 72 h in 96-well plates. The LDH release assay was performed using the Pierce LDH Cytotoxicity Assay Kit from Thermo Scientific. The caspase-3 assay was performed using the Roche APO-One Homogeneous Caspase-3/7 Assay. Experiments were performed in replicates of five and an additional 10 wells were used for controls. Cells were cultured in the inner 60 wells (rows B-G, columns 2-11) of the 96-well plate. DMEM:F12 media (100 μL) was added to the outer wells (rows A and H, columns 1 and 12), in order to ensure the greatest reproducibility of data generated in the inner wells.
SH-SY5Y cells were plated in a 96-well plate at 30,000 cells per well. Cells were incubated in 100 μL of a 1:1 mixture of DMEM:F12 media supplemented with 10% fetal bovine serum, 100 U/mL penicillin, and 100 μg/mL streptomycin at 37° C. in a 5% CO2 atmosphere and allowed to adhere to the bottom of the plate for 24 hours.
After 24 hours, the culture media was removed and replaced with 90 μL of serum-free DMEM:F12 media. A 10 μL aliquot of the working solutions of peptides 1 or 2, or trimers 3 and 4 was added to each well, for a well-concentration of 18 μM and 9 μM for peptides 1 and 2, 6 μM and 3 μM for trimer 3 or 6 μM, 3 μM, 1.5 μM, and 0.75 μM for trimer 4. Experiments were run in replicates of five. Five wells were used as controls and received a 10 μL aliquot of deionized water (vehicle). Another five wells were left untreated, to be subsequently used as controls with lysis buffer for the LDH release assay, or staurosporine for the caspase-3 activation assay. Cells were incubated at 37° C. in a 5% CO2 atmosphere for 72 hours.
After 67 hours, 10 μL of 10× staurosporine was added to the control wells, and the cells were incubated for an additional 5 h. Next, the compound-containing media was removed and replaced with 25 μL of fresh serum-free DMEM/F12 media. A 25-μL aliquot of caspase-3 substrate, prepared according to manufacturer's protocol, was then added to each well. The plate was sealed with a clear adhesive plate sealer and fluorescence was monitored over 18 h while shaking at 250 rpm using a Gemini XPS fluorescence plate reader (excitation at 499 nm, emission at 521 nm). Data from the 18 h time point were processed by subtracting the relative fluorescence units (RFU) of the vehicle control wells from the RFU of the peptides 1 and 2 or trimers 3 and 4-treated wells.

Substance | oligomer state consistent with SEC elution volume [1] | oligomer size by SEC [1] | A11 reactivity (A11 antibody) | reaction with A11 antibody (A11 antibody) | caspase-3 activation (caspase-3) | induction of caspase-3 mediated apoptosis (caspase-3) | caspase-3 activity level compared to staurosporine (caspase-3)
peptide 1: macrocyclic β-sheet peptide: Aβ17-23 and Aβ30-36 strands linked by two δOrn turns, Orn35, N-methyl on G33 (Seq. ID 18-19) | dimers | 1-2 | no | do not | no | little or no effect | –
peptide 2: macrocyclic β-sheet peptide: Aβ17-23 and Aβ30-36 strands linked by two δOrn turns, Orn35, N-methyl on F20 (Seq. ID 20-21) | dimers | 1-2 | no | do not | no | little or no effect | –
trimer 3: symmetric tris-disulfide crosslinked trimer generated from peptide 3 (chain 1 [Orn]CVFFCED; chain 2 [Orn]AIIGL[Orn]V; not fully specified (some residues); also: symmetric tris-disulfide crosslinked trimer, macrocyclic by macrolactamization, linkage of strands not given here) | hexamer | 6 | yes | react with the A11 antibody | yes | induced apoptosis | comparable
trimer 4: symmetric tris-disulfide crosslinked trimer generated from peptide 4 (chain 1 [Orn]CVF[NMeF]CED; chain 2 [Orn]AIIGL[Orn]V; also: symmetric tris-disulfide crosslinked trimer, macrocyclic by macrolactamization, linkage of strands not given here) | hexamer | 6 | yes | react with the A11 antibody | yes | induced apoptosis | comparable

— US11319348B2, “Synthetic beta-amyloid peptides capable of forming stable antigenic oligomers” (The Regents of the University of California, priority 2016, dated 2022)
